Measurements taken from patent US10722519B2, “Aerosol fluoroquinolone formulations for improved pharmacokinetics” (priority 2008, dated 2020).
≈ marks a conversion by molar mass, not a printed value. Like-named read-outs stand apart in the source and are kept apart here.

Experiments:
in vivo [1] = conditions: male, Sprague-Dawley, rat, in vivo, 10 mg/kg
Protocol: This example relates to aerosol and intravenous administration of fluoroquinolones in saline. A rat pharmacokinetic model was used to compare intravenous and pulmonary administration of fluoroquinolones. […] Doses were administered via the lateral tail vein, or to the lung just above the tracheal bifurcation using a micro-spray aerosol device (Penn Century, Philadelphia, Pa.).
Approximately 0.3 ml blood samples were taken from 2-6 rats at each timepoint via an indwelling jugular vein cannula, and collected in lithium heparin tubes. Bronchial alveolar lavage (BAL) and lung tissue were collected following euthanasia. […] Sample concentrations were determined against a standard curve.

P. aeruginosa ATCC 27853 [2] = test: MIC, broth microdilution; format: cell-based; conditions: Pseudomonas aeruginosa, ATCC27853, P. aeruginosa ATCC27853
Protocol: (§1) Bacterial strains MIC testing: P. aeruginosa ATCC 27853 and NH57388A were used in these studies. MICs were determined by a broth microdilution assay according to CLSI reference methods (Methods for dilution of antimicrobial susceptibility test for bacteria that grow aerobically. Seventh Edition: Clinical and Laboratory Standards Institute (2006) M&-A7, incorporated by reference in its entirety). Assays were performed in a final volume of 100 μl. The bacterial suspensions were adjusted to yield a cell density of 5×10^5 CFU/ml. Antibiotics were prepared at a concentration equivalent to twofold the highest desired final concentration in culture medium and were then diluted directly into 96-well microtiter plates. Microtiter plates were incubated for 24 h at 35° C. and were read by using a microtiter plate reader (Molecular Devices) at 600 nm as well as by visual observation by using a microtiter plate reading mirror.

P. aeruginosa NH57388A [3] = test: MIC, broth microdilution; format: cell-based; conditions: Pseudomonas aeruginosa, NH57388A, P. aeruginosa NIH57388A CF; read-out: MIC
Protocol: as §1

[4] = Mouse lung homogenate pharmacokinetics; conditions: IP, 20 mg/kg normalized to 60 mg/kg
Protocol: Mice were sacrificed at 0.08, 0.16, 0.25, 0.5, 0.75, 1.0, 2.0, 3.0, and 4.0 h after dosing and their lungs collected. […] Analytical standards (0.05 to 100 mg/L) were prepared in fresh mouse lung homogenate collected from untreated animals. […] Aliquots of the supernatant (25 μl) were injected directly onto the HPLC using a temperature-controlled autoinjector set at 10° C. Standard curves were constructed of the peak area versus standard concentration, and the data were fit using weighted linear regression (Microsoft Excel, Seattle, Wash.). […] The lung pharmacokinetic parameters were determined using WinNonlin (Pharsight, Mountain View, Calif.).

P. aeruginosa ATCC 27853 [5] = test: Acute mouse lung infection model; conditions: mice, 2 doses over 24 h
Protocol: Aerosol Administration of antibiotics: Antibiotics were aerosolized using a microspray aerosol device (MicroSprayer Model IA-C, PennCentury, Philadelphia, Pa.) attached to a FMJ-250 High-Pressure Syringe (PennCentury, Philadelphia, Pa.). […] For administration, each mouse was anesthetized (5% isoflurane in oxygen running at 4 L/min) and positioned securely at a 45-50° angle by the upper teeth, the microspray aerosol tip was inserted to the bifurcation and a 50 μl volume was administered.
The bacterial suspensions were adjusted to approximately 1-6×10^5 CFU/ml by correlation of the absorbance at 600 nm with predetermined plate counts. […] On day 4, mice were infected by intratracheal (IT) instillation of 0.05 ml of inoculum using a curved oral gavage tip attached to a 1 ml syringe. […] Antibiotics were aerosolized using a microspray aerosol device. All infections and aerosol treatments were performed under isoflurane anesthesia (5% isoflurane in oxygen running at 4 L/min). An untreated group of mice (n=8) was sacrificed prior to the initiation of treatment to determine baseline bacterial counts. […] The lungs were removed aseptically and homogenized (Pro200 homogenizer, Pro Scientific, Monroe, Conn.) in 1 ml of sterile saline. Serial 10-fold dilutions of the homogenized lung were plated on Mueller-hinton agar (MHA), and colonies counted.
In addition, due to the need for anesthesia for treatment, the maximum number of daily doses was limited to two.

P. aeruginosa NH57388A [6] = test: Chronic mouse lung infection model; format: in vivo; conditions: mice, twice daily for 72 h
Protocol: Bacterial cells were harvested by centrifugation (23,000×g, 30 min, at 4° C.) and resuspended in 3-6 ml of MHB. The supernatant was collected and placed in 80° C. water-bath for 30 min. […] The precipitated alginate was collected with a sterile bacterial loop and washed several times in sterile saline. The purified alginate was then resuspended in 10 ml of sterile saline and stirred vigorously to form a homogeneous suspension. […] The bacterial suspension was diluted (1:10) in the alginate suspension to yield about 10^8 CFU/ml. […] On day 4, the mice were infected using a curved bead-tipped oral gavage attached to a 1 ml syringe while under isoflurane anesthesia.

[7] = Standard kill-curve and in vitro hollow fiber assay; format: cell-based; conditions: high concentrations, 0.018-fold-[…] the MIC evaluated
Text: Fluoroquinolone efficacy in humans, animals and in vitro models of infection is linked to AUC:MIC ratio and Cmax:MIC ratio.

[8] = rat, 10 mg/kg
[9] = Sprague-Dawley, rat, in vivo, 10 mg/kg
in vivo [10] = conditions: Sprague-Dawley, rat, 10 mg/kg
clinical = conditions: human, in vivo

## C[C@H]1COc2c(N3CCN(C)CC3)c(F)cc3c(=O)c(C(=O)O)cn1c23 [Levofloxacin, levofloxacin]
In vivo [1]
  F, % from Lung vs IV: 97%
  MAT: 0 h
In vivo [1]; inhaled or intranasal
  AUC: 3000 ng·h/mL
  AUC(0-inf): 3700 ng·h/mL
  MRT: 42 min
  half-life: 30 min
In vivo [1]; iv
  AUC: 1600 ng·h/mL
  AUC(0-inf): 3800 ng·h/mL
  MRT: 42 min
  half-life: 30 min
P. aeruginosa ATCC 27853 [2]
  MIC: 1 µg/mL (≈ 2.77 µM)
P. aeruginosa NH57388A [3]
  MIC: 2 µg/mL (≈ 5.53 µM)
[4]
  AUC (Normalized to 60 mg/kg): 12.3 mg·h/kg
  Cmax (Normalized to 60 mg/kg): 18.6 mg/kg
P. aeruginosa ATCC 27853 [5]; systemic (IP) 32 mg/kg
  reductions in lung bacterial counts: 0.65 log CFU
P. aeruginosa ATCC 27853 [5]; systemic (IP) 62.5 mg/kg
  reductions in lung bacterial counts: 2.7 log CFU
P. aeruginosa NH57388A [6]; intraperitoneal 15 mg/kg in saline
  log increase in bacterial counts: 0.83 log
P. aeruginosa NH57388A [6]; intraperitoneal 30 mg/kg in saline
  log increase in bacterial counts: 0.32 log
P. aeruginosa NH57388A [6]; intraperitoneal 60 mg/kg in saline
  log increase in bacterial counts: 0.15 log
[7]
  time to reach maximum levels of killing: 10 to 20 min
[8]; Sprague-Dawley, in vivo
  Plasma MAT: 0.01 h
[8]; IV, mean (+/- SD)
  Plasma CL/F: 2.81 (±0.54) L/hr/kg
[9]
  F, % from Lung vs IV: 97%
In vivo [10]; inhaled or intranasal
  MRT: 42 min
  half-life: 30 min
In vivo [10]; iv
  MRT: 42 min
  half-life: 30 min
clinical; iv, 50 mg, Serum AUC(0-inf)
  AUC(0-inf): 3910 ng·h/mL
clinical; iv, 50 mg, Serum Cmax
  Cmax: 2550 ng/mL
clinical; iv, 50 mg, Serum t1/2, IV 50 mg
  half-life: 353 min
clinical; iv, 50 mg, Sputum AUC(0-inf)
  AUC(0-inf): 5700 ng·h/mL
clinical; iv, 50 mg, Sputum Cmax
  Cmax: 1050 ng/mL
clinical; po, 750 mg
  half-life: 402 min
clinical; po, 750 mg, Serum AUC(0-inf)
  AUC(0-inf): 76600 ng·h/mL
clinical; po, 750 mg, Serum Cmax
  Cmax: 7300 ng/mL
clinical; po, 750 mg, Serum t1/2, Oral 750 mg, CF patients
  half-life: 456 min
clinical; po, 750 mg, Sputum AUC(0-inf)
  AUC(0-inf): 93400 ng·h/mL
clinical; po, 750 mg, Sputum Cmax
  Cmax: 8700 ng/mL
